Key:
[1] = tested on: transplanted tumor of HT-29 cells; test: HT-29 transplanted tumor in nude mice
Experimental: (§1) Then cell concentration was adjusted to 1×10^7/ml with matrigel, then each nude mouse was inoculated subcutaneously with 0.2 ml of cells at its right armpit and recorded as the first day of inoculation. When the tumor grows to be greater than or equal to 100 mm^3, the mice were randomly divided into 11 groups with 6 mice in each group: isovaleryl spiramycin I groups with doses of 25, 50 and 100 mg/kg, isovaleryl spiramycin II groups with doses of 25, 50 and 100 mg/kg, and isovaleryl spiramycin III groups with doses of 25, 50 and 100 mg/kg. Each group was continuously administered intragastrically for 30 days with a dose of 20 ml/kg. The mice were sacrificed the next day after drug withdrawal and the indicators were tested. The long diameter and short diameter of the tumor, and the body weight of each mouse were recorded every 3 days from drug administration to nude mouse sacrifice.
(§2) The body weight of the nude mice and the long diameter (a) and short diameter (b) of the transplanted tumor were measured every 3 days, and the tumor volume (v), relative tumor volume (RTV) and relative tumor proliferation rate (T/C) are calculated respectively according to the following formulas, wherein V=a×b^2/2; RTV=V/V0 (V0 is the tumor volume before administration, V is the tumor volume before sacrifice), and T/C (%)=treatment group RTV/model control group RTV×100%.
(§3) Each mouse was weighed and sacrificed. After the tumor was completely stripped off from the body of the mouse, the non-tumor tissues such as blood stains and fat were removed to weigh the tumor and calculate the tumor growth inhibition rate. The average tumor weight of each group of mice is used as an indicator of efficacy. Tumor growth inhibition rate (%)=(1−the average tumor weight of the treatment group/the average tumor weight of the model group)×100%.

[2] = tested on: transplanted tumor of human lymphoma cell U937; test: U937 transplanted tumor in nude mice; conditions: U937 nude mice, 30 mg/kg
Experimental: as §1, with “U937 cells in a logarithmic growth phase were taken and subjected to a trypan blue exclusion experiment showing that the cell viability was more than 95%, then the cells were subjected to trypsinization, centrifugation, and supernatant removal. Then” for “Then”, “group: a model group, a cyclophosphamide group,” for “group:”
as §2, §3

[3] = tested on: transplanted tumor of human cervical cancer cell HeLa; test: HeLa transplanted tumor in nude mice; conditions: HeLa nude mice, 30 mg/kg
Experimental: as §1, with “HeLa cells in a logarithmic growth phase were taken and subjected to a trypan blue exclusion experiment showing that the cell viability was more than 95%, then the cells were subjected to trypsinization, centrifugation, and supernatant removal. Then” for “Then”, “group: a model group, a cyclophosphamide group,” for “group:”
as §2, §3

## O=P1(N(CCCl)CCCl)NCCCO1 (stereo not drawn) [Cyclophosphamide, cyclophosphamide, reference compound]
[1]; HT-29 nude mice, 30 mg/kg
  Inhibition Rate (%): 78.87%
  Tumor Weight: 0.50 ± 0.25 g
[1]; HT-29 nude mice, 30 mg/kg, d1
  Body Weight (g) (d1): 21.42 ± 1.35 g
[1]; HT-29 nude mice, 30 mg/kg, d30
  Body Weight (g) (d30): 18.69 ± 1.21 g
[1]; dose 30 mg/kg
  Relative Tumor Proliferation Rate (T/C): 19.84%
  Relative Tumor Volume (RTV): 2.86 ± 1.44
[1]; dose 30 mg/kg, d 1
  Tumor Volume (mm3) (d 1): 176.59 ± 36.81 mm3
[1]; dose 30 mg/kg, d 30
  Tumor Volume (mm3) (d30): 477.12 ± 166.46 mm3
[2]
  Inhibition Rate (%): 65.11%
  Relative Tumor Proliferation Rate (T/C): 35.44%
  Relative Tumor Volume (RTV): 6.04 ± 1.26
  Tumor Weight: 0.68 ± 0.12 g
[2]; d1
  Body Weight (g) (d1): 21.00 ± 0.72 g
  Tumor Volume (mm3) (d 1): 125.00 ± 32.61 mm3
[2]; d30
  Body Weight (g) (d30): 19.72 ± 0.95 g
  Tumor Volume (mm3) (d30): 722.72 ± 55.32 mm3
[3]
  Inhibition Rate (%): 65.74%
  Relative Tumor Proliferation Rate (T/C): 36.17%
  Relative Tumor Volume (RTV): 6.00 ± 1.35
  Tumor Weight: 0.66 ± 0.13 g
[3]; d1
  Body Weight (g) (d1): 21.10 ± 0.69 g
  Tumor Volume (mm3) (d 1): 127.17 ± 35.82 mm3
[3]; d30
  Body Weight (g) (d30): 19.73 ± 1.22 g
  Tumor Volume (mm3) (d30): 724.89 ± 53.90 mm3
